{
  "source": "patent US20080045492A1",
  "about": "“Mitotic Kinesin Inhibitors” (priority 2004, published 2008)",
  "biological_target": "T1, human KSP motor domain (KSP(367H)) (Homo sapiens, UniProt P52732)",
  "T1 construct": "were used to amplify the motor domain and the neck linker region; made in house; host or cells: E. coli BL21 (DE3), pRSETa",
  "T1 sequence (P52732 18-359 limits assumed)": "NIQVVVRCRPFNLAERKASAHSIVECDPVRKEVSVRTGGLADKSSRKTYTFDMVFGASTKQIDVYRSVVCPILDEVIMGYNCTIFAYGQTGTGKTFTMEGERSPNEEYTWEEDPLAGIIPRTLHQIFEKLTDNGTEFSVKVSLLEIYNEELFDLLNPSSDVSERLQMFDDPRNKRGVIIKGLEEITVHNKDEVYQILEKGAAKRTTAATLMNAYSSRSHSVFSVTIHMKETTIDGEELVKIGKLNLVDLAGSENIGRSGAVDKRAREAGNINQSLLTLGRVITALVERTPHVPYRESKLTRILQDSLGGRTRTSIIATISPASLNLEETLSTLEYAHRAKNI",
  "test": "Kinesin ATPase In Vitro Assay",
  "format": "biochemical",
  "protocol": "I. Kinesin ATPase In Vitro Assay\nThe N-terminal primer 5′-[…] (SEQ. ID. NO.: 1) and the C-terminal primer 5′-[…] […] […] The PCR products were digested with AseI and XhoI, ligated into the NdeI/XhoI digestion product of pRSETa (Invitrogen) and transformed into E. coli BL21 (DE3).\nCells were grown at 37° C. to an OD600 of 0.5. After cooling the culture to room temperature expression of KSP was induced with 100 μM IPTG and incubation was continued overnight. Cells were pelleted by centrifugation and washed once with ice-cold PBS. Pellets were flash-frozen and stored −80° C.\nCell pellets were thawed on ice and resuspended in lysis buffer (50 mM K-HEPES, pH 8.0, 250 mM KCl, 0.1% Tween, 10 mM imidazole, 0.5 mM Mg-ATP, 1 mM PMSF, 2 mM benzimidine, 1× complete protease inhibitor cocktail (Roche)). Cell suspensions were incubated with 1 mg/ml lysozyme and 5 mM β-mercaptoethanol on ice for 10 minutes, followed by sonication (3×30 sec). All subsequent procedures were performed at 4° C. Lysates were centrifuged at 40,000×g for 40 minutes. Supernatants were diluted and loaded onto an SP Sepharose column (Pharmacia, 5 ml cartridge) in buffer A (50 mM K-HEPES, pH 6.8, 1 mM MgCl2, 1 mM EGTA, 10 μM Mg-ATP, 1 mM DTT) and eluted with a 0 to 750 mM KCl gradient in buffer A. Fractions containing KSP were pooled and incubated with Ni-NTA resin (Qiagen) for one hour. The resin was washed three times with buffer B (Lysis buffer minus PMSF and protease inhibitor cocktail), followed by three 15-minute incubations and washes with buffer B. Finally, the resin was incubated and washed for 15 minutes three times with buffer C (same as buffer B except for pH 6.0) and poured into a column. KSP was eluted with elution buffer (identical to buffer B except for 150 mM KCl and 250 mM imidazole). KSP-containing fractions were pooled, made 10% in sucrose, and stored at −80° C.\nMicrotubules are prepared from tubulin isolated from bovine brain. Purified tubulin (>97% MAP-free) at 1 mg/ml is polymerized at 37° C. in the presence of 10 μM paclitaxel, 1 mM DTT, 1 mM GTP in BRB80 buffer (80 mM K-PIPES, 1 mM EGTA, 1 mM MgCl2 at pH 6.8). The resulting microtubules are separated from non-polymerized tubulin by ultracentrifugation and removal of the supernatant. The pellet, containing the microtubules, is gently resuspended in 10 μM paclitaxel, 1 mM DTT, 50 μg/ml ampicillin, and 5 μg/ml chloramphenicol in BRB80.\nThe kinesin motor domain is incubated with microtubules, 1 mM ATP (1:1 MgCl2: Na-ATP), and compound at 23° C. in buffer containing 80 mM K-HEPES (pH 7.0), 1 mM EGTA, 1 mM DTT, 1 mM MgCl2, and 50 mM KCl. […] Free phosphate from the ATP hydrolysis reaction is measured via a quinaldine red/ammonium molybdate assay by adding a […] of quench C (e.g., to a mixture of 40 μl reaction volume+40 μl stop buffer is then added 120 μl quench C). […] Quench C is a 2:1 ratio of quench A:quench B The reaction is incubated for 5-10 minutes at 23° C., and the absorbance of the phospho-molybdate complex is measured at 540 nm.",
  "key": {"[1]": {"details": "kinesin motor domain with microtubules, 1 mM ATP, 23° C., read-out: IC50"}},
  "note": "Where two headings read alike, the source gives them in different places.",
  "data": [
    {"smiles": "CON(C)C(=O)C1=NN(c2cc(C)ccc2F)CC1(CCCO)c1ccccc1", "note": "(racemic) [Compound 2-1, (±)-1-(2-fluoro-5-methylphenyl)-4-(3-hydroxypropyl)-N-methoxy-N-methyl-4-phenyl-4,5-dihydro-1H-pyrazole-3-carboxamide]", "values": [
      {"measurement": "IC50", "setting": "[1]", "value": "≤ 50", "unit": "µM"}
    ]},
    {"smiles": "CC(=O)C1=NN(c2cc(C)ccc2F)CC1(CCCN(C)C)c1ccccc1", "note": "(racemic) [Compound 2-3, (±)-(1-[4-[3-(dimethylamino)propyl]-1-(2-fluoro-5-methylphenyl)-4-phenyl-4,5-dihydro-1H-pyrazol-3-yl]ethanone]", "values": [
      {"measurement": "IC50", "value": "≤ 50", "unit": "µM"}
    ]},
    {"smiles": "CC(=O)C1=NN(c2cccc(F)c2)CC1c1ccccc1", "note": "(racemic) [Compound 3-5, (±)-1-[1-(3-fluorophenyl)-4-phenyl-4,5-dihydro-1H-pyrazol-3-yl]ethanone]", "values": [
      {"measurement": "IC50", "setting": "[1]", "value": "≤ 50", "unit": "µM"}
    ]},
    {"smiles": "CCOC(=O)C1=NN(c2cc(F)ccc2F)C(N2CCOCC2)C1c1ccccc1", "note": "(racemic) [Compound 44, (±)-Ethyl 1-(2,5-difluorophenyl)-5-morpholin-4-yl-4-phenyl-4,5-dihydro-1H-pyrazole-3-carboxylate]", "values": [
      {"measurement": "IC50", "setting": "[1]", "value": "≤ 50", "unit": "µM"}
    ]},
    {"smiles": "CC(=O)c1nn(-c2cc(F)ccc2F)cc1-c1ccccc1", "note": "[Compound 4-7, 1-[1-(2,5-difluorophenyl)-4-phenyl-1H-pyrazol-3-yl]ethanone]", "values": [
      {"measurement": "IC50", "setting": "[1]", "value": "≤ 50", "unit": "µM"}
    ]}
  ]
}
